Reference: patent US20090247559A1 (Exelixis, Inc., priority 2007, published 2009)
pIC50: −log10 of the molar value.

molecular target: PIM (PIM-1, PIM-2, and/or PIM-3); assay: PIM-1, PIM-2 and PIM-3 inhibition, biochemical chemiluminescence assays (Kinase Glo, IC50 determination); details: Table 1 activity class; PIM refers to PIM-1, PIM-2, and/or PIM-3; read-out: PIM IC50 (Activity B)
Protocol: (§1) The IC50 evaluation of compounds against the PIM-1 oncogene was performed in a Chemiluminesence assay utilizing a Greiner 384-well white medium binding white plate format. […] Following an incubation period of 120 minutes at ambient temperature (24-27° C.), 10 μL of Kinase Glo (Promega) was added. The luminescence was measured following a Luminescence Protocol on a Victor plate reader.
as §1, with “PIM-2” for “PIM-1”, “format. […] The assay procedure involves compound dilution followed by addition of 3 nM PIM-2 to the designated well plates and subsequent pre-incubation of the compounds with the enzyme for 30 minutes at ambient temperature (24-27° C.).” for “format.”
as §1, with “PIM-3 Oncogene” for “PIM-1 oncogene”

pIC50	SMILES
> 5.00	CN1CCN(C(c2nc3c(oc4ccc(Br)cc43)c(=O)[nH]2)c2ccccc2Cl)CC1 (centres unmarked) [Compound 156, 8-Bromo-2-[(2-chlorophenyl)(4-methylpiperazin-1-yl)methyl][1]benzofuro[3,2-d]pyrimidin-4(3H)-one]
> 5.00	O=c1[nH]c(-c2ccc(Cl)cc2)nc2c1oc1ccc(Br)cc12 [Compound 94, 8-Bromo-2-(4-chlorophenyl)[1]benzofuro[3,2-d]pyrimidin-4(3H)-one]
> 5.00	CN1CCN(c2ccccc2CNCc2nc3c(oc4ccc(Br)cc43)c(=O)[nH]2)CC1 [Compound 74, 8-bromo-2-[({[2-(4-methylpiperazin-1-yl)phenyl]methyl}amino)methyl][1]benzofuro[3,2-d]pyrimidin-4(3H)-one]
> 5.00	O=c1[nH]c(-c2cn3c(n2)CNCC3)nc2c1oc1ccc(Br)cc12 [Compound 301, 8-Bromo-2-(5,6,7,8-tetrahydroimidazo[1,2-a]pyrazin-2-yl)[1]benzofuro[3,2-d]pyrimidin-4(3H)-one]
> 5.00	O=C(Nc1ccc(Cl)c(-c2nc3c(oc4ccc(Br)cc43)c(=O)[nH]2)c1)C1CCNCC1 [Compound 392, ′N-[3-(8-bromo-4-oxo-3,4-dihydro[1]benzofuro[3,2-d]pyrimidin-2-yl)-4-chlorophenyl]piperidine-4-carboxamide]
> 5.00	O=C(COc1cccc(-c2nc3c(oc4ccc(Br)cc43)c(=O)[nH]2)c1)NCC1CC1 [Compound 98, 2-{[3-(8-bromo-4-oxo-3,4-dihydro[1]benzofuro[3,2-d]pyrimidin-2-yl)phenyl]oxy}-N-(cyclopropylmethyl)acetamide]
> 5.00	O=c1[nH]c(CNc2ccc(F)cc2)nc2c1oc1ccc(Br)cc12 [Compound 22, 8-bromo-2-{[(4-fluorophenyl)amino]methyl}[1]benzofuro[3,2-d]pyrimidin-4(3H)-one]
> 5.00	CN1CCN(C(=O)c2nc3c(oc4ccc(Br)cc43)c(=O)[nH]2)CC1 [Compound 106, 8-Bromo-2-[(4-methylpiperazin-1-yl)carbonyl][1]benzofuro[3,2-d]pyrimidin-4(3H)-one]
> 5.00	CN1CCC(N2CCN(Cc3nc4c(oc5ccc(Br)cc54)c(=O)[nH]3)CC2)CC1 [Compound 84, 8-bromo-2-{[4-(1-methylpiperidin-4-yl)piperazin-1-yl]methyl}[1]benzofuro[3,2-d]pyrimidin-4(3H)-one]
> 5.00	CN1CCN(C(Cc2ccccc2)c2nc3c(oc4ccc(Br)cc43)c(=O)[nH]2)CC1 (centres unmarked) [Compound 215, 8-bromo-2-[1-(4-methylpiperazin-1-yl)-2-phenylethyl][1]benzofuro[3,2-d]pyrimidin-4(3H)-one]
> 5.00	CN1CCN(Cc2nc3c(oc4ccc(C#CCO)cc43)c(=O)[nH]2)CC1 [Compound 450, 8-(3-hydroxyprop-1-yn-1-yl)-2-[(4-methylpiperazin-1-yl)methyl][1]benzofuro[3,2-d]pyrimidin-4(3H)-one]
> 5.00	O=c1[nH]c(CN2CCN(CCN3CCOCC3)CC2)nc2c1oc1ccc(Br)cc12 [Compound 82, 8-bromo-2-{[4-(2-morpholin-4-ylethyl)piperazin-1-yl]methyl}[1]benzofuro[3,2-d]pyrimidin-4(3H)-one]
> 5.00	CNC(=O)c1ccc2oc3c(=O)[nH]c(-c4ccccc4Cl)nc3c2c1 [Compound 97, 2-(2-chlorophenyl)-N-methyl-4-oxo-3,4-dihydrobenzofuro[3,2-d]pyrimidine-8-carboxamide]
> 5.00	O=c1[nH]c(-c2ccc(Br)cc2)nc2c1oc1ccc(Br)cc12 [Compound 95, 8-Bromo-2-(4-bromophenyl)[1]benzofuro[3,2-d]pyrimidin-4(3H)-one]
> 5.00	CN(C)CCCNC(=O)[C@@H]1CCCN1Cc1nc2c(oc3ccc(Br)cc32)c(=O)[nH]1 [Compound 20, 1-[(8-bromo-4-oxo-3,4-dihydro[1]benzofuro[3,2-d]pyrimidin-2-yl)methyl]-N-[3-(dimethylamino)propyl]prolinamide]
> 5.00	CCN(CC)CC(=O)N1CCN(Cc2nc3c(oc4ccc(Br)cc43)c(=O)[nH]2)CC1 [Compound 26, 8-bromo-2-{[4-(N,N-diethylglycyl)piperazin-1-yl]methyl}[1]benzofuro[3,2-d]pyrimidin-4(3H)-one]
> 5.00	O=c1[nH]c(CNC2CCNCC2)nc2c1oc1ccc(Br)cc12 [Compound 8, 8-bromo-2-[(piperidin-4-ylamino)methyl][1]benzofuro[3,2-d]pyrimidin-4(3H)-one]

pIC50	SMILES
> 5.00	Cc1cc(NCC2CCOC2)ccc1-c1nc2c(oc3ccc(Br)cc32)c(=O)[nH]1 (centres unmarked) [Compound 61, 8-bromo-2-{2-methyl-4-[(tetrahydrofuran-3-ylmethyl)amino]phenyl}[1]benzofuro[3,2-d]pyrimidin-4(3H)-one]
> 5.00	O=c1[nH]c(-c2ccc3nc[nH]c3c2)nc2c1oc1ccc(Br)cc12 [Compound 423, 2-(1H-benzimidazol-6-yl)-8-bromo[1]benzofuro[3,2-d]pyrimidin-4(3H)-one]
> 5.00	CN1CCN(c2ccc(CNc3nc4c(oc5ccc(Br)cc54)c(=O)[nH]3)cc2)CC1 [Compound 225, 8-bromo-2-({[4-(4-methylpiperazin-1-yl)phenyl]methyl}amino)[1]benzofuro[3,2-d]pyrimidin-4(3H)-one]
> 5.00	CN1CCN(Cc2nc3c(oc4ccc(F)cc43)c(=O)[nH]2)CC1 [Compound 367, 8-Fluoro-2-[(4-methylpiperazin-1-yl)methyl][1]benzofuro[3,2-d]pyrimidin-4(3H)-one]
> 5.00	O=c1[nH]c(CN2CCC(N3CCCCC3)CC2)nc2c1oc1ccc(Br)cc12 [Compound 202, 2-(1,4′-bipiperidin-1′-ylmethyl)-8-bromo[1]benzofuro[3,2-d]pyrimidin-4(3H)-one]
> 5.00	O=c1[nH]c(CN2CC[C@H](O)C2)nc2c1nc1ccc(Br)cn12 [Compound 418, 8-bromo-2-{[(3S)-3-hydroxypyrrolidin-1-yl]methyl}pyrido[1,2-e]purin-4(3H)-one]
> 5.00	CC(C)COc1cnccc1-c1nc2c(oc3ccc(Br)cc32)c(=O)[nH]1 [Compound 219, 8-bromo-2-{3-[(2-methylpropyl)oxy]pyridin-4-yl}[1]benzofuro[3,2-d]pyrimidin-4(3H)-one]
> 5.00	C[C@@H]1CN(Cc2nc3c(oc4ccc(Br)cc43)c(=O)[nH]2)C[C@H](C)N1C [Compound 316, 8-bromo-2-{[(3R,5S)-3,4,5-trimethylpiperazin-1-yl]methyl}[1]benzofuro[3,2-d]pyrimidin-4(3H)-one]
> 5.00	COC(=O)c1ccc(-c2nc3c(oc4ccccc43)c(=O)[nH]2)cc1 [Compound 53, methyl 4-(4-oxo-3,4-dihydro[1]benzofuro[3,2-d]pyrimidin-2-yl)benzoate]
> 5.00	Nc1ccc(-c2nc3c(oc4ccccc43)c(=O)[nH]2)c(Cl)c1 [Compound 399, 2-(4-amino-2-chlorophenyl)[1]benzofuro[3,2-d]pyrimidin-4(3H)-one]
> 5.00	O=c1[nH]c(CN2CC[C@H](O)C2)nc2c1oc1ccc(NC3CCCCC3)cc12 [Compound 449, 8-(cyclohexylamino)-2-{[(3S)-3-hydroxypyrrolidin-1-yl]methyl}[1]benzofuro[3,2-d]pyrimidin-4(3H)-one]
> 5.00	CN(C)CCNCc1nc2c(oc3ccc(Br)cc32)c(=O)[nH]1 [Compound 200, 8-bromo-2-({[2-(dimethylamino)ethyl]amino}methyl)[1]benzofuro[3,2-d]pyrimidin-4(3H)-one]
> 5.00	COc1ccc(C(=O)Nc2ccc(Cl)c(-c3nc4c(oc5ccc(Br)cc54)c(=O)[nH]3)c2)cn1 [Compound 357, N-[3-(8-bromo-4-oxo-3,4-dihydro[1]benzofuro[3,2-d]pyrimidin-2-yl)-4-chlorophenyl]-6-(methyloxy)pyridine-3-carboxamide]
> 5.00	CN(C)c1cccc(NCc2nc3c(oc4ccc(Br)cc43)c(=O)[nH]2)c1 [Compound 76, 8-bromo-2-({[3-(dimethylamino)phenyl]amino}methyl)[1]benzofuro[3,2-d]pyrimidin-4(3H)-one]
> 5.00	O=c1[nH]c(C(c2ccccc2)N2CCNCC2)nc2c1oc1ccc(Br)cc12 (centres unmarked) [Compound 384, 8-bromo-2-[phenyl(piperazin-1-yl)methyl][1]benzofuro[3,2-d]pyrimidin-4(3H)-one]
> 5.00	O=C(Nc1ccc(Cl)c(-c2nc3c(oc4ccc(Br)cc43)c(=O)[nH]2)c1)c1ccc(Br)cn1 [Compound 338, 5-bromo-N-[3-(8-bromo-4-oxo-3,4-dihydro[1]benzofuro[3,2-d]pyrimidin-2-yl)-4-chlorophenyl]pyridine-2-carboxamide]
> 5.00	CN1CCN(C(c2ccccc2)c2nc3c(oc4ccc(Br)cc43)c(=O)[nH]2)CC1 (centres unmarked) [Compound 188, 8-bromo-2-[(4-methylpiperazin-1-yl)(phenyl)methyl][1]benzofuro[3,2-d]pyrimidin-4(3H)-one]

SMILES	pIC50
NC1C[C@H]2CC[C@@H](C1)N2Cc1nc2c(oc3ccc(Br)cc32)c(=O)[nH]1 (stereo partly drawn) [Compound 131, 2-{[(1R,5S)-3-Amino-8-azabicyclo[3.2.1]oct-8-yl]methyl}-8-bromo[1]benzofuro[3,2-d]pyrimidin-4(3H)-one]	> 5.00
